Measured values as given in patent US8653046B2, “Controlling transgene expression across the skin” (ETH Zurich, priority 2009, dated 2014).

Experiments:
[1] = tested on: macrolide-responsive control system (ET1, E-VP16; PETR3-SAMY-pA); assay: Compatibility test: macrolide-responsive (EOFF) SAMY production in CHO-PEACE8 (pWW35, pBP100); assay type: cell-based; conditions: CHO-PEACE8 transiently transfected with macrolide-responsive control system; Phl 50 μM, EM 2 μg/mL; 48 h; 100 = no inducer
Excerpt: (§1) To evaluate the functional compatibility of PEACE with the established tetracycline— [TETOFF; Gossen M., Bujard H., 1992, Proc Natl Acad Sci USA 89(12):5547-5551] and macrolide— [EOFF; Weber W., et al., 2002, Nat Biotechnol 20(9):901-907] responsive expression circuits CHO-PEACE8 is transiently transfected, transgenic for phloretin-responsive SEAP expression, with either the TETOFF-(pSAM200, PSV40-tTA-pA; pBP99, PhCMV*-1-SAMY-pA) or the EOFF-(PWW35, PSV40-ET1-pA; pBP100, PETR3-SAMY-pA) system set to control the Bacillus stearothermophilus-derived secreted α-amylase (SAMY) in response to tetracycline and erythromycin, respectively. SEAP and SAMY expression are scored 48 h after cultivation of the transfected populations in the presence (50 μM; 2 μg/mL) or absence of the inducer molecules (phloretin, tetracycline, erythromycin).

TtgA1 (TtgR-VP16) [2] = molecular target: T1, TtgA1 (TtgR-VP16) (Pseudomonas putida, UniProt Q9AIU0); assay: Compatibility test: phloretin-responsive SEAP production of CHO-PEACE8; assay type: cell-based, Pseudomonas putida DOT-T1E; design: expressed in transfected cells; host or cells: CHO-K1 (transient pMG11 or pMG13); also HEK-293, BHK-21, COS-7, HaCaT, HT-1080, NIH/3T3, primary human fibroblasts and keratinocytes; conditions: Phl 50 μM, 48 h, 100 = no inducer
T1 sequence (Q9AIU0 whole entry, added parts left off): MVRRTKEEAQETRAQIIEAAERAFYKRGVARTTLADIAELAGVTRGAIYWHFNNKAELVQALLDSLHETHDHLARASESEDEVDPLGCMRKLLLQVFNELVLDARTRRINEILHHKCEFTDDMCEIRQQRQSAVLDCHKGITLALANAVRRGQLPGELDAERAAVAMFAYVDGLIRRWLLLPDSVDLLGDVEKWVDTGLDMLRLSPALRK
Excerpt: as §1
The stable CHO-PEACE8 cell line, transgenic for phloretin-controlled SEAP expression, is constructed in two steps: (i) CHO-K1 cells are co-transfected with pMG11 (PSV40-TtgA1-pA) and pSV2neo (Clontech, Cat. No. 6172-1) at a ratio of 20:1 and clonal selection results in the cell line CHO-TtgA. (ii) CHO-TtgA is co-transfected with pMG10 (PTtgR1-SEAP-pA) and pPur (Clontech, Cat. No. 6156-1) (ratio of 20:1) and the phloretin-responsive SEAP-producing double-transgenic cell line CHO-PEACE8 is chosen after clonal selection. […] Reversibility of phloretin-mediated SEAP production is assessed by cultivating CHO-PEACE8 (100,000 cells/mL) for 144 h while alternating phloretin concentrations from 0 to 50 μM every 48 h.

CHO-K1 = assay: Toxicity of flavonoids: CHO-K1 transiently transfected with pSEAP2-Control, SEAP levels after 48 h; conditions: 0, 25, 50 μM, genistein cytotoxic only at 50 μM
Protocol: (A) Toxicity of flavonoids. CHO-K1 are transiently transfected with pSEAP2-Control, and cultivated in medium supplemented with different flavonoids (0, 25, 50 μM). SEAP levels are scored after 48 h.
(§2) CHO-K1 are transiently (co-)transfected with either pMG10 (PTtgR1-SEAP-pA) and pMG11 (PSV40-TtgA1-pA), to score regulation performance, or with pSEAP2-Control (PSV40-SEAP-pA), to assess compound-related cytotoxicity, and then cultivated for 48 h in medium containing different concentrations (0, 25, 50 μM) of specific flavonoid type compounds (berberine, butylparaben, genistein, luteolin, β-naphthol, naringenin, phloretin, phloridzin or quercetin) before SEAP production is profiled (FIG. 5A).
Wild-type Chinese hamster ovary cells (CHO-K1, ATCC: CCL-61) and their derivatives are cultivated in standard medium: ChoMaster® HTS (Cell Culture Technologies, Gravesano, Switzerland) supplemented with 5% (v/v) fetal calf serum (FCS, PAN Biotech GmbH, Aidenbach, Germany, Cat. No. 3302, Lot No. P251110) and 1% (v/v) penicillin/streptomycin solution (Sigma, St Louis, Mo., USA, Cat. No. P4458). Human embryonic kidney cells (HEK-293, Mitta B., et al., 2002, Nucleic Acids Res 30(21):e113), African green monkey kidney cells (COS-7, ATCC: CRL-1651), baby hamster kidney cells (BHK-21, ATCC: CCL10), human fibrosarcoma cells (HT-1080, ATCC: CCL-121), the human keratinocyte cell line HaCaT (Boukamp P., et al., 1988, J Cell Biol 106(3):761-771) and mouse fibroblasts (NIH/3T3, ATCC: CRL-1658) are cultured in Dulbecco's modified Eagle's medium (DMEM; Invitrogen, Cat. No. 52100-39) supplemented with 10% FCS (v/v) and 1% (v/v) penicillin/streptomycin solution. Primary human foreskin fibroblasts are cultivated in DMEM supplemented with 20% FCS (v/v) and 1% (v/v) penicillin/streptomycin solution and primary human foreskin keratinocytes are cultured in chemically defined serum-free keratinocyte medium (Invitrogen, Cat. No. 10744019). All cell types are cultivated at 37° C. in a 5% CO2-containing humidified atmosphere. For transient transfection of CHO-K1, 1 μg of total plasmid DNA (for co-transfection an equal amount of each plasmid) is transfected into 50,000 cells per well of a 24-well plate according to an optimized calcium phosphate protocol (Greber D., Fussenegger M., 2007, Biotechnol Bioeng 96(5):821-834). Plasmid DNA is diluted to a total volume of 25 μL 0.5 M CaCl2 solution, which is mixed with 25 μL 2×HBS solution (50 mM HEPES, 280 mM NaCl, 1.5 mM Na2HPO4, pH 7.1). After incubation for 15 min at room temperature, the precipitates are immediately added to the well and centrifuged onto the cells (5 min at 1,200×g) to increase transfection efficiency. After 3 h, the cells are treated with 0.5 mL glycerol solution (ChoMaster® HTS medium containing 15% glycerol) for 60 sec. After washing once with phosphate-buffered saline (PBS, Dulbecco's Phosphate-Buffered Saline; Invitrogen, Cat. No. 21600-0069), cells are cultivated in 0.5 mL standard ChoMaster® HTS medium in the presence or absence of different concentrations of phloretin. For transfection of BHK-21, COS-7 and HEK-293, plasmid DNA-Ca2PO4 precipitate is prepared and applied to the cells as described above. HEK-293 and COS-7 cells are washed once with PBS after 3 h incubation with the DNA-Ca2PO4 precipitate and subsequently cultivated in standard DMEM, while BHK-21 cells are incubated overnight with the precipitates and then cultivated in DMEM medium after being washed once with PBS. […]

TtgA1 (TtgR-VP16) [3] = molecular target: T1, TtgA1 (TtgR-VP16); assay: PEACE: SEAP expression after transient co-transfection of pMG10 (PTtgR1-SEAP-pA) and pMG11 (PSV40-TtgA1-pA); assay type: cell-based; conditions: CHO-K1, 0, 25, 50 μM, 48 h
Excerpt: Living in the plant rhizosphere, Pseudomonas putida DOT-T1E has evolved resistance to a variety of plant-derived antimicrobials, which is triggered by phloretin-induced release of TtgR protein from the operator (OTtgR) of its target promoter and subsequent induction of a broadly specific TtgABC efflux pump (Teran W. et al., loc. cit.).
Three different transactivators are designed, harboring either the VP16 (TtgA1; pMG11, TtgR-VP16) (Triezenberg S. J. et al., loc. cit.), the p65 (TtgA2; pMG18, TtgR-p65) (Urlinger S., et al., 2000, Gene 247(1-2):103-110) or the human E2F4 (TtgA3; pMG19, TtgR-E2F4) (Akagi K., Kanai M., Saya H., Kozu T., Berns A., 2001, Nucleic Acids Res 29(4):e23) transactivation domains. pMG11, pMG18 or pMG19 are co-transfected with pMG10 (PTtgR1-SEAP-pA) into CHO-K1, HEK-293 as well as primary human fibroblasts and keratinocytes, and SEAP expression is profiled after 48 h of cultivation in the presence or absence of 50 μM phloretin.
as §2
Wild-type Chinese hamster ovary cells (CHO-K1, ATCC: CCL-61) and their derivatives are cultivated in standard medium: ChoMaster® HTS (Cell Culture Technologies, Gravesano, Switzerland) supplemented with 5% (v/v) fetal calf serum (FCS, PAN Biotech GmbH, Aidenbach, Germany, Cat. No. 3302, Lot No. P251110) and 1% (v/v) penicillin/streptomycin solution (Sigma, St Louis, Mo., USA, Cat. No. P4458). Human embryonic kidney cells (HEK-293, Mitta B., et al., 2002, Nucleic Acids Res 30(21):e113), African green monkey kidney cells (COS-7, ATCC: CRL-1651), baby hamster kidney cells (BHK-21, ATCC: CCL10), human fibrosarcoma cells (HT-1080, ATCC: CCL-121), the human keratinocyte cell line HaCaT (Boukamp P., et al., 1988, J Cell Biol 106(3):761-771) and mouse fibroblasts (NIH/3T3, ATCC: CRL-1658) are cultured in Dulbecco's modified Eagle's medium (DMEM; Invitrogen, Cat. No. 52100-39) supplemented with 10% FCS (v/v) and 1% (v/v) penicillin/streptomycin solution. Primary human foreskin fibroblasts are cultivated in DMEM supplemented with 20% FCS (v/v) and 1% (v/v) penicillin/streptomycin solution and primary human foreskin keratinocytes are cultured in chemically defined serum-free keratinocyte medium (Invitrogen, Cat. No. 10744019). All cell types are cultivated at 37° C. in a 5% CO2-containing humidified atmosphere.

[4] = molecular target: T2, tetracycline-responsive control system (PSV40-tTA-pA; PhCMV*-1-SAMY-pA) (Escherichia coli, UniProt P04483); assay: Compatibility test: tetracycline-responsive (TETOFF) SAMY production in CHO-PEACE8 (pSAM200, pBP99); assay type: cell-based; conditions: CHO-PEACE8 transiently transfected with tetracycline-responsive control system; Phl 50 μM, Tet 2 μg/mL; 48 h; 100 = no inducer
T2 construct: expressed in transfected cells; host or cells: CHO-PEACE8 transiently transfected with pSAM200 and pBP99
T2 sequence (P04483 whole entry, added parts left off): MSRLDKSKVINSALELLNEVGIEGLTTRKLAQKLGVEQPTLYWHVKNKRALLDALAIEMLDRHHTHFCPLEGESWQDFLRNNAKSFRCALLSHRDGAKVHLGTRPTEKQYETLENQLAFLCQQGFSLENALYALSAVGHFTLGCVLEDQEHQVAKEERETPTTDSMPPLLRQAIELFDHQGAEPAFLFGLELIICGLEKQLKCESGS
Excerpt: as §1

| Structure (SMILES) | compound-related cytotoxicity / cell viability (CHO-K1) | PEACE regulation performance (SEAP production) (TtgA1 (TtgR-VP16) [3]) | other results |
| --- | --- | --- | --- |
| CC[C@H]1OC(=O)[C@H](C)[C@@H](O[C@H]2C[C@@](C)(OC)[C@@H](O)[C@H](C)O2)[C@H](C)[C@@H](O[C@@H]2O[C@H](C)C[C@H](N(C)C)[C@H]2O)[C@](C)(O)C[C@@H](C)C(=O)[C@H](C)[C@@H](O)[C@]1(C)O [EM, erythromycin] |  |  | Relative SAMY Production (%) [1]: 1.5 ± 1.8%; Relative SEAP Production (%) (TtgA1 (TtgR-VP16) [2]; CHO-PEACE8 transiently transfected with macrolide-responsive control system, EM 2 μg/mL): 102.7 ± 5.3% |
| CCCCOC(=O)c1ccc(O)cc1 [butylparaben, butyl 4-hydroxybenzoate] | do not reduce cell viability | able to regulate but not fully repress SEAP production |  |
| O=C1C[C@@H](c2ccc(O)cc2)Oc2cc(O)cc(O)c21 [naringenin] | cytotoxic |  |  |
| COc1ccc2cc3[n+](cc2c1OC)CCc1cc2c(cc1-3)OCO2 [berberine] | do not reduce cell viability | fails to control PEACE |  |
| CN(C)[C@@H]1C(O)=C(C(N)=O)C(=O)[C@@]2(O)C(O)=C3C(=O)c4c(O)cccc4[C@@](C)(O)[C@H]3C[C@@H]12 [Tet, tetracycline] |  |  | Relative SAMY Production (%) [4]: 3.0 ± 0.4%; Relative SEAP Production (%) (TtgA1 (TtgR-VP16) [2]; CHO-PEACE8 transiently transfected with tetracycline-responsive control system, Tet 2 μg/mL): 93.2 ± 3.8% |
| O=c1c(-c2ccc(O)cc2)coc2cc(O)cc(O)c12 [genistein] | cytotoxic |  |  |
